Test results as given in patent US20250367160A1, “USE OF GUAIJAVERIN IN PREPARATION OF EYE PROTECTION PRODUCT” (Innovation Center of Yangtze River Delta, ZJU, priority 2024, published 2025).

Legend:
[1] = tested on: mouse retina; assay: Mouse retinal optical damage model, H&E histopathological evaluation of retina; type: in vivo, BALB/c mice; settings: for morphology and thickness of the outer nuclear layer retina and inner nuclear layer retina (H&E): gavage once a day 10 days, vs model group, FIG. 5
Procedure: (§1) A self-made light box with a length of 108 cm, a width of 50 cm, and a height of 72 cm was used, and the light intensity was measured by a light meter to be 8,500-10,000 Lux. After eye examination, 60 mice with normal eyeballs were selected and randomly divided into a control group, a model group, a lutein group (100 mg/kg), a guaijaverin low-dose group (50 mg/kg), and a guaijaverin high-dose group (100 mg/kg), with 12 mice in each group. Lutein and guaijaverin were suspended in 5% sodium carboxymethylcellulose (CMC-Na) solution and administered by gavage once a day. The mice in the control and model groups were administered by gavage with an equal volume of 5% CMC-Na for 10 consecutive days. 10 days later, the mice in the model group, lutein group, guaijaverin low-dose group, and guaijaverin high-dose group were kept in the dark for 36 h, atropine eye gel was applied to both eyes of the mice to induce pupil dilation, and the mice were placed in the self-made lighting device of 8,000-10,000 Lux (the control group was raised in a normal environment) and given continuous light for 24 h. After the light exposure, the mice in each group had their eyeballs removed to draw blood and eyeball tissue collected for subsequent experimental tests.
Eyeball tissues of 6 mice were collected from each group for Hematoxylin-eosin staining (H&E) and TUNEL fluorescence staining of apoptotic cells, and the pathological changes of mouse eyeball tissues were observed using an optical microscope (completed by Wuhan Servicebio Biotechnology Co., Ltd.).
a) Dewaxing of paraffin sections to water: the sections were sequentially placed in environmental-friendly dewaxing solution I for 20 min, environmental-friendly dewaxing solution II for 20 min, anhydrous ethanol I for 5 min, anhydrous ethanol II for 5 min, and 75% alcohol for 5 min, and then wash with tap water.
b) Pretreatment: the sections were placed into H&E high-definition constant staining pretreatment solution for 1 min. […]
f) The sections were examined under a microscope and the images were collected and analyzed.

[2] = tested on: T-AOC; assay: Mouse retinal optical damage model, plasma total antioxidant capacity (T-AOC); type: in vivo, BALB/c mice; settings: gavage once a day 10 days, vs model group, FIG. 7
Procedure: as §1, with “After the light exposure, the mice in each group had their eyeballs removed to draw blood and eyeball tissue collected for subsequent experimental tests.” left out
The mouse blood was collected in an anticoagulant tube and centrifuged at 3,000 rpm for 10 min at 4° C. to collect the upper plasma. The T-AOC content was determined according to the method provided by the kit manufacturer.

[3] = tested on: Wild-type AB zebrafish; assay: Determination of maximum test concentration (MTC) in zebrafish blue light eye damage model; type: in vivo; settings: 28° C.; for Death count / Development status (phenotype) / Mortality: aqueous, n = 30
Procedure: Wild-type AB zebrafish at 1 day post-fertilization (1 dpf) were randomly selected and irradiated with blue light after membrane rupture to establish the zebrafish blue light eye damage model. Model zebrafish with desirable development status were selected at 3 dpf and randomly distributed in 6-well plates, with 30 zebrafish in each well (experimental group) were treated. Different concentrations of guaijaverin (concentrations shown in Table 1) were administered aqueously, and a normal control group and a model group were set up, where a volume of each well was 3 mL. After treatment at 28° C. for 1 d, the MTC of guaijaverin on model zebrafish was determined.

[4] = tested on: ocular apoptotic cells of the zebrafish; assay: Anti-blue light eye protection efficacy, AO staining of ocular apoptotic cells in zebrafish blue light eye damage model; type: in vivo; settings: for Fluorescence intensity of ocular apoptotic cells (pixel, mean ± SE): aqueous, 28° C., 1 d, n = 10, model group 45833 ± 4825, normal control 12203 ± 1124
Procedure: Wild-type AB zebrafish at 1 dpf were randomly selected and irradiated with blue light after membrane rupture to establish the zebrafish blue light eye damage model. Model zebrafish with desirable development status were selected at 3 dpf and randomly distributed in 6-well plates, with 30 zebrafish in each well (experimental group) were treated. Different concentrations of guaijaverin (see Table 2 for concentrations) were administered aqueously, and lutein at a concentration of 62.5 μg/mL were used as a positive control, while a normal control group and a model group were also set up, with a volume of 3 mL per well. After 1 d of treatment at 28° C., the zebrafish in each experimental group were stained with AO in the dark for 30 min and washed 3 times with standard dilution water. 10 zebrafish were randomly selected from each experimental group and photographed under a fluorescence microscope. The data were analyzed and collected using Image J software. The fluorescence intensity of ocular apoptotic cells of the zebrafish was statistically analyzed. The anti-blue light eye protection efficacy of guaijaverin was evaluated based on the statistical analysis results of the above indicators. The statistical result was expressed as mean±SE.

O=c1c(O[C@@H]2OC[C@H](O)[C@H](O)[C@H]2O)c(-c2ccc(O)c(O)c2)oc2cc(O)cc(O)c12 [Guaijaverin, guaijaverin]
anti-optical damage eye protection efficacy compared with lutein (H&E) ([1]; high-dose 100 mg/kg vs lutein 100 mg/kg): better anti-optical damage eye protection efficacy than lutein | morphology and thickness of the outer nuclear layer retina and inner nuclear layer retina (H&E) ([1]; high-dose 100 mg/kg): increase the thickness of the outer nuclear layer retina and inner nuclear layer retina | morphology and thickness of the outer nuclear layer retina and inner nuclear layer retina (H&E) ([1]; low-dose 50 mg/kg): increase the thickness of the outer nuclear layer retina and inner nuclear layer retina | plasma T-AOC level ([2]; high-dose 100 mg/kg): significantly increase the T-AOC level | plasma T-AOC level ([2]; low-dose 50 mg/kg): significantly increase the T-AOC level | Death count ([3]; 125 μg/mL, 1 d): 0 per fish | Development status (phenotype) ([3]; 125 μg/mL, 1 d): Status similar to that of model | Mortality ([3]; 125 μg/mL, 1 d): 0% | Death count ([3]; 150 μg/mL, 1 d): 0 per fish | Development status (phenotype) ([3]; 150 μg/mL, 1 d): Status similar to that of model | Mortality ([3]; 150 μg/mL, 1 d): 0% | Dissolution ([3]; 200 μg/mL in fish water): Precipitated | Death count ([3]; 200 μg/mL, 1 d): 0 per fish | Development status (phenotype) ([3]; 200 μg/mL, 1 d): Status similar to that of model | Mortality ([3]; 200 μg/mL, 1 d): 0% | Dissolution ([3]; 250 μg/mL in fish water): Precipitated | Death count ([3]; 250 μg/mL, 1 d): 0 per fish | Development status (phenotype) ([3]; 250 μg/mL, 1 d): Status similar to that of model | Mortality ([3]; 250 μg/mL, 1 d): 0% | Dissolution ([3]; 500 μg/mL in fish water): Precipitated | Death count ([3]; 500 μg/mL, 1 d): 0 per fish | Development status (phenotype) ([3]; 500 μg/mL, 1 d): Status similar to that of model | Mortality ([3]; 500 μg/mL, 1 d): 0% | Dissolution ([3]; 1000 μg/mL in fish water): Precipitated | Death count ([3]; 1000 μg/mL, 1 d): 0 per fish | Development status (phenotype) ([3]; 1000 μg/mL, 1 d): Status similar to that of model | Mortality ([3]; 1000 μg/mL, 1 d): 0% | Dissolution ([3]; 2000 μg/mL in fish water): Precipitated | Death count ([3]; 2000 μg/mL, 1 d): 0 per fish | Development status (phenotype) ([3]; 2000 μg/mL, 1 d): Status similar to that of model | Mortality ([3]; 2000 μg/mL, 1 d): 0% | MTC (maximum test concentration) ([3]; model zebrafish, 1 d): 150 µg/mL | Fluorescence intensity of ocular apoptotic cells (pixel, mean ± SE) ([4]; 62.5 μg/mL): 31471 ± 2353 pixel | eye protection effect against blue optical damage compared with lutein ([4]; 125 μg/mL vs lutein 62.5 μg/mL): same significant eye protection effect as lutein | Fluorescence intensity of ocular apoptotic cells (pixel, mean ± SE) ([4]; 125 μg/mL): 24765 ± 2077 pixel | eye protection effect against blue optical damage compared with lutein ([4]; 150 μg/mL vs lutein 62.5 μg/mL): more significant eye protection effect than lutein | Fluorescence intensity of ocular apoptotic cells (pixel, mean ± SE) ([4]; 150 μg/mL): 18149 ± 1688 pixel
